Measured values: ChEMBL document CHEMBL1153599, “Synthesis of new chiral 2,5-disubstituted 1,3,4-thiadiazoles possessing gamma-butenolide moiety and preliminary evaluation of in vitro anticancer activity” (Eur J Med Chem, 2009)
One block for each molecule: values may come before it.

Tests used:
[1] = system: HeLa; test: Anticancer activity against human HeLa cells after 24 hrs by MTT assay; assay type: functional, cell-based
[2] = system: HeLa; test: Viability of human HeLa cells at 1 uM after 24 hrs by MTT assay
[3] = system: HeLa; test: Viability of human HeLa cells at 5 uM after 24 hrs by MTT assay
[4] = system: HeLa; test: Viability of human HeLa cells at 10 uM after 24 hrs by MTT assay
[5] = system: HeLa; test: Viability of human HeLa cells at 20 uM after 24 hrs by MTT assay
[6] = system: HeLa; test: Viability of human HeLa cells at 0.1 uM after 24 hrs by MTT assay

- IC50 [1]: 900 nM
Structure (SMILES): CC1CCC(C(C)C)C(O[C@H]2OC(=O)C(Br)=C2Sc2nnc(-c3ccc([N+](=O)[O-])cc3)s2)C1 (some centres not stated)
- viability at 1 µM [2]: 47.6%
- viability at 5 µM [3]: 30%
- viability at 10 µM [4]: 34.5%
- viability at 20 µM [5]: 24.5%
- viability at 0.1 µM [6]: 59.2%

- IC50 [1]: 3000 nM
Structure (SMILES): CC1CCC(C(C)C)C(O[C@H]2OC(=O)C(Br)=C2Sc2nnc(-c3ccccc3)s2)C1 (some centres not stated)
- viability at 1 µM [2]: 59.1%
- viability at 5 µM [3]: 40.6%
- viability at 10 µM [4]: 28.1%
- viability at 20 µM [5]: 29.7%
- viability at 0.1 µM [6]: 56.1%

- IC50 [1]: 2900 nM
Structure (SMILES): CC1CCC(C(C)C)C(O[C@H]2OC(=O)C(Br)=C2Sc2nnc(-c3ccccc3O)s2)C1 (some centres not stated)
- viability at 1 µM [2]: 61.2%
- viability at 5 µM [3]: 37.5%
- viability at 10 µM [4]: 42.3%
- viability at 20 µM [5]: 33.4%
- viability at 0.1 µM [6]: 58.9%

- IC50 [1]: 1700 nM
Structure (SMILES): CC1CCC(C(C)C)C(O[C@H]2OC(=O)C(Br)=C2Sc2nnc(-c3ccco3)s2)C1 (some centres not stated)
- viability at 1 µM [2]: 54.3%
- viability at 5 µM [3]: 29.4%
- viability at 10 µM [4]: 36.9%
- viability at 20 µM [5]: 27.2%
- viability at 0.1 µM [6]: 55.6%

- IC50 [1]: 5600 nM
Structure (SMILES): CC1CCC(C(C)C)C(O[C@H]2OC(=O)C(Br)=C2Sc2nnc(-c3cccnc3)s2)C1 (some centres not stated)
- viability at 1 µM [2]: 59.5%
- viability at 5 µM [3]: 52.3%
- viability at 10 µM [4]: 32.8%
- viability at 20 µM [5]: 33%
- viability at 0.1 µM [6]: 56.4%

- IC50 [1]: 2200 nM
Structure (SMILES): CC1CCC(C(C)C)C(O[C@H]2OC(=O)C(Br)=C2Sc2nnc(-c3ccc(Cl)cc3)s2)C1 (some centres not stated)
- viability at 1 µM [2]: 58.2%
- viability at 5 µM [3]: 29.3%
- viability at 10 µM [4]: 35.1%
- viability at 20 µM [5]: 26.8%
- viability at 0.1 µM [6]: 51%

- IC50 [1]: 3400 nM
Structure (SMILES): CC1(C)C2CCC1(C)C(O[C@H]1OC(=O)C(Br)=C1Sc1nnc(-c3cccnc3)s1)C2 (some centres not stated)
- viability at 1 µM [2]: 56.3%
- viability at 5 µM [3]: 45.4%
- viability at 10 µM [4]: 40.5%
- viability at 20 µM [5]: 36.3%
- viability at 0.1 µM [6]: 58.9%

- IC50 [1]: 3000 nM
Structure (SMILES): CC1(C)C2CCC1(C)C(O[C@H]1OC(=O)C(Br)=C1Sc1nnc(-c3ccncc3)s1)C2 (some centres not stated)
- viability at 1 µM [2]: 55.1%
- viability at 5 µM [3]: 44.9%
- viability at 10 µM [4]: 39.4%
- viability at 20 µM [5]: 40.6%
- viability at 0.1 µM [6]: 51.8%

- IC50 [1]: 1300 nM
Structure (SMILES): CC1(C)C2CCC1(C)C(O[C@H]1OC(=O)C(Br)=C1Sc1nnc(-c3ccco3)s1)C2 (some centres not stated)
- viability at 1 µM [2]: 51.4%
- viability at 5 µM [3]: 31.1%
- viability at 10 µM [4]: 28.6%
- viability at 20 µM [5]: 34.3%
- viability at 0.1 µM [6]: 50.9%

- IC50 [1]: 3700 nM
Structure (SMILES): COc1ccc(-c2nnc(SC3=C(Br)C(=O)O[C@@H]3OC3CC(C)CCC3C(C)C)s2)cc1 (some centres not stated)
- viability at 1 µM [2]: 55.6%
- viability at 5 µM [3]: 47.1%
- viability at 10 µM [4]: 35.6%
- viability at 20 µM [5]: 32.9%
- viability at 0.1 µM [6]: 56.4%

- IC50 [1]: 1300 nM
Structure (SMILES): CC1CCC(C(C)C)C(O[C@H]2OC(=O)C(Br)=C2Sc2nnc(-c3ccncc3)s2)C1 (some centres not stated)
- viability at 1 µM [2]: 51.3%
- viability at 5 µM [3]: 33.9%
- viability at 10 µM [4]: 26.8%
- viability at 20 µM [5]: 22.3%
- viability at 0.1 µM [6]: 73.8%

- IC50 [1]: 2600 nM
Structure (SMILES): CC1CCC(C(C)C)C(O[C@H]2OC(=O)C(Br)=C2Sc2nnc(-c3ccc(O)cc3)s2)C1 (some centres not stated)
- viability at 1 µM [2]: 59.4%
- viability at 5 µM [3]: 36%
- viability at 10 µM [4]: 44.4%
- viability at 20 µM [5]: 36%
- viability at 0.1 µM [6]: 60.6%
